# The supplement of paper PMC10307832
# Key:
# Assay in all cases: relative viability (nuclei count vs DMSO), 5 days (fraction); higher = more cells survive
# [1] = compound: CN(c1ncccc1CNc1nc(Nc2ccc3c(c2)CC(=O)N3)ncc1C(F)(F)F)S(C)(=O)=O + COc1cc2c(Oc3ccc(NC(=O)C4(C(=O)Nc5ccc(F)cc5)CC4)cc3F)ccnc2cc1OCCCN1CCOCC1 [Foretinib] (partner 0.25 µM)
# Summary of the method: (§1)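 Nuclei were stained with Hoechst during a one-step fixation (final 0.05% Triton X-100, 1% formaldehyde, 1 ug/ml Hoechst) carried out 5 days after dosing, then counted on 4× images. The cells, lung cancer lines in 1536-well plates, had been dosed by pin tool the day after seeding with one drug alone or a fixed anchor-drug dose plus five library-drug doses (not always all listed) in √10 steps. Relative viability is the nuclei count in treated wells divided by that in vehicle wells, and each value is the median of duplicate plates.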
# [2] = compound: CN(c1ncccc1CNc1nc(Nc2ccc3c(c2)CC(=O)N3)ncc1C(F)(F)F)S(C)(=O)=O + CS(=O)(=O)N1CCN(Cc2cc3nc(-c4cccc5[nH]ncc45)nc(N4CCOCC4)c3s2)CC1 [Pictilisib] (partner 1 µM)
# Summary of the method: as §1
# [3] = compound: CN(c1ncccc1CNc1nc(Nc2ccc3c(c2)CC(=O)N3)ncc1C(F)(F)F)S(C)(=O)=O + CC(C)C[C@H](NC(=O)[C@H](Cc1ccccc1)NC(=O)c1cnccn1)B(O)O [Bortezomib] (partner 0.002 µM)
# Summary of the method: as §1
# [4] = compound: CN(c1ncccc1CNc1nc(Nc2ccc3c(c2)CC(=O)N3)ncc1C(F)(F)F)S(C)(=O)=O + CC(=O)c1c(C)c2cnc(Nc3ccc(N4CCNCC4)cn3)nc2n(C2CCCC2)c1=O [Palbociclib] (partner 0.5 µM)
# Summary of the method: as §1
Cell Line,relative viability ([1]; first compound 0.01 µM),relative viability ([1]; first compound 0.03162 µM),relative viability ([1]; first compound 0.1 µM),relative viability ([1]; first compound 0.3162 µM),relative viability ([1]; first compound 1 µM),relative viability ([2]; first compound 0.01 µM),relative viability ([2]; first compound 0.03162 µM),relative viability ([2]; first compound 0.1 µM),relative viability ([2]; first compound 0.3162 µM),relative viability ([2]; first compound 1 µM),relative viability ([3]; first compound 0.01 µM),relative viability ([3]; first compound 0.03162 µM),relative viability ([3]; first compound 0.1 µM),relative viability ([3]; first compound 0.3162 µM),relative viability ([3]; first compound 1 µM),relative viability ([4]; first compound 0.01 µM),relative viability ([4]; first compound 0.03162 µM),relative viability ([4]; first compound 0.1 µM),relative viability ([4]; first compound 0.3162 µM),relative viability ([4]; first compound 1 µM)
201T,1.06,1.09,1.09,0.928,1.02,0.697,0.666,0.613,0.675,0.647,1.1,1.09,1.04,1.01,1.08,0.35,0.348,0.354,0.343,0.323
A-427,1.04,1.18,1.01,1.16,1.07,0.69,0.753,0.638,0.73,0.667,1.09,1.01,0.998,0.942,0.965,0.529,0.491,0.516,0.546,0.491
ABC-1,1.11,1.2,1.01,0.92,0.936,0.74,0.822,0.746,0.952,0.847,0.308,0.273,0.396,0.376,0.329,0.608,0.609,0.725,0.814,0.676
BEN,0.815,0.608,0.618,0.587,0.845,0.595,0.585,0.512,0.594,0.703,0.821,0.772,0.993,0.865,0.856,0.461,0.472,0.48,0.499,0.434
CAL-12T,1.32,1.2,1.1,1.1,0.838,0.43,0.305,0.28,0.318,0.498,1.07,0.886,0.856,0.919,0.878,0.44,0.341,0.416,0.407,0.366
COR-L23,1.07,1.15,0.937,0.921,0.851,0.793,0.824,0.922,0.874,0.585,0.967,1.01,1.05,0.951,0.894,0.265,0.262,0.308,0.239,0.234
COR-L 105,1,1.27,0.989,0.848,0.773,0.435,0.395,0.383,0.427,0.426,0.889,0.733,0.835,0.814,0.595,0.426,0.411,0.41,0.427,0.376
Calu-6,0.936,0.989,0.808,0.955,0.812,0.926,0.986,0.929,0.874,0.845,1.04,1.01,1.02,0.958,0.874,–,–,–,–,–
ChaGo-K-1,0.968,0.894,0.946,0.935,0.782,0.753,0.518,0.973,–,1.15,1.01,0.803,1.11,–,1.09,0.942,0.955,0.917,0.785,0.877
EKVX,0.815,0.924,1.15,0.741,0.802,0.462,0.422,0.418,0.375,0.431,1.02,1.19,1.11,0.923,0.83,0.369,0.372,0.359,0.285,0.352
EMC-BAC-2,0.933,1.18,0.989,0.944,0.943,0.576,0.505,0.465,0.528,0.5,1.08,1.1,1,1.06,1.08,0.494,0.503,0.518,0.511,0.491
EPLC-272H,0.569,0.776,0.727,0.844,0.69,0.256,0.269,0.298,0.209,0.336,0.972,0.774,0.854,0.944,0.758,0.366,0.357,0.358,0.353,0.299
H3255,0.88,0.818,0.867,0.981,0.769,0.422,0.537,0.413,0.505,0.382,0.758,0.783,0.819,0.505,0.784,0.312,0.316,0.345,0.327,0.295
HARA,1.06,0.864,0.905,0.871,0.664,0.305,0.556,0.365,0.544,0.377,1.12,1.07,1.13,1.2,1.09,0.211,0.276,0.231,0.203,0.247
HCC-15,0.968,1.06,0.963,0.951,0.916,0.817,0.68,0.711,0.716,0.622,1.04,1,0.898,0.88,0.829,0.709,0.747,0.65,0.609,0.583
HCC-44,–,–,–,–,–,0.478,0.623,0.617,0.678,0.658,0.963,0.931,0.913,0.829,0.824,0.83,0.953,0.943,0.907,0.867
